Results as given in ChEMBL document CHEMBL3046843, “Synthesis and investigation of anti-inflammatory activity of novel nitric oxide donating hybrid drugs” (Med Chem Res, 2013).

How the values were obtained:
Rattus norvegicus [1] = test: Anti-inflammatory activity in Rattus norvegicus (rat) assessed as inhibition of carrageenan-induced paw edema at 14 mg/kg, po administered at 1 hr prior to carrageenan-challenge measured after 1 hr relative to control; type: functional
Mus musculus [2] = test: Analgesic activity in Mus musculus (mouse) assessed as inhibition of acetic acid-induced writhing at 14 mg/kg, po measured after 25 min relative to control; type: functional
Rattus norvegicus [3] = test: Anti-inflammatory activity in Rattus norvegicus (rat) assessed as inhibition of carrageenan-induced paw edema at 14 mg/kg, po administered at 1 hr prior to carrageenan-challenge measured after 2 hr relative to control; type: functional
Rattus norvegicus [4] = test: Ulcerogenic activity in fasted albino Rattus norvegicus (rat) at 14 mg/kg, po administered QD for 3 days measured on day 4; type: toxicity, organism-based; set-up: dose 14 mg/kg, route oral; settings: in vivo, 72 h
[5] = Induction of nitric oxide release in phosphate buffer at 10^-4 M after 1 hr at pH 7.4 by Griess method in presence of L-cysteine relative to control; type: physicochemical; settings: pH 7.4, 1 h, 100 µM
Rattus norvegicus [6] = test: Anti-inflammatory activity in Rattus norvegicus (rat) assessed as inhibition of carrageenan-induced paw edema at 14 mg/kg, po administered at 1 hr prior to carrageenan-challenge measured after 3 hr relative to control; type: functional
Rattus norvegicus [7] = test: Anti-inflammatory activity in Rattus norvegicus (rat) assessed as inhibition of carrageenan-induced paw edema at 14 mg/kg, po administered at 1 hr prior to carrageenan-challenge measured after 4 hr relative to control; type: functional
Rattus norvegicus [8] = test: Ulcerogenic activity in fasted albino Rattus norvegicus (rat) assessed as stomach mucosal injury at 14 mg/kg, po administered QD for 3 days measured on day 4 by electron microscopic analysis; type: toxicity, organism-based; set-up: dose 14 mg/kg, route oral; settings: in vivo, 72 h
Mus musculus [9] = test: Analgesic activity in Mus musculus (mouse) assessed as inhibition of acetic acid-induced writhing at 13 mg/kg, po measured after 25 min relative to control; type: functional
Rattus norvegicus [10] = test: Ulcerogenic activity in fasted albino Rattus norvegicus (rat) assessed as stomach mucosal injury at 13 mg/kg, po administered QD for 3 days measured on day 4 by electron microscopic analysis; type: toxicity, organism-based; set-up: dose 13 mg/kg, route oral; settings: in vivo, 72 h
Rattus norvegicus [11] = test: Anti-inflammatory activity in Rattus norvegicus (rat) assessed as inhibition of carrageenan-induced paw edema at 13 mg/kg, po administered at 1 hr prior to carrageenan-challenge measured after 4 hr relative to control; type: functional
Rattus norvegicus [12] = test: Anti-inflammatory activity in Rattus norvegicus (rat) assessed as inhibition of carrageenan-induced paw edema at 13 mg/kg, po administered at 1 hr prior to carrageenan-challenge measured after 3 hr relative to control; type: functional
Rattus norvegicus [13] = test: Ulcerogenic activity in fasted albino Rattus norvegicus (rat) at 13 mg/kg, po administered QD for 3 days measured on day 4; type: toxicity, organism-based; set-up: dose 13 mg/kg, route oral; settings: in vivo, 72 h
Rattus norvegicus [14] = test: Anti-inflammatory activity in Rattus norvegicus (rat) assessed as inhibition of carrageenan-induced paw edema at 13 mg/kg, po administered at 1 hr prior to carrageenan-challenge measured after 1 hr relative to control; type: functional
Rattus norvegicus [15] = test: Anti-inflammatory activity in Rattus norvegicus (rat) assessed as inhibition of carrageenan-induced paw edema at 13 mg/kg, po administered at 1 hr prior to carrageenan-challenge measured after 2 hr relative to control; type: functional
Mus musculus [16] = test: Analgesic activity in Mus musculus (mouse) assessed as inhibition of acetic acid-induced writhing at 10 mg/kg, po measured after 25 min relative to control; type: functional
Rattus norvegicus [17] = test: Anti-inflammatory activity in Rattus norvegicus (rat) assessed as inhibition of carrageenan-induced paw edema at 10 mg/kg, po administered at 1 hr prior to carrageenan-challenge measured after 4 hr relative to control; type: functional
Rattus norvegicus [18] = test: Anti-inflammatory activity in Rattus norvegicus (rat) assessed as inhibition of carrageenan-induced paw edema at 10 mg/kg, po administered at 1 hr prior to carrageenan-challenge measured after 1 hr relative to control; type: functional
Rattus norvegicus [19] = test: Ulcerogenic activity in fasted albino Rattus norvegicus (rat) at 10 mg/kg, po administered QD for 3 days measured on day 4; type: toxicity, organism-based; set-up: dose 10 mg/kg, route oral; settings: in vivo, 72 h
Rattus norvegicus [20] = test: Anti-inflammatory activity in Rattus norvegicus (rat) assessed as inhibition of carrageenan-induced paw edema at 10 mg/kg, po administered at 1 hr prior to carrageenan-challenge measured after 2 hr relative to control; type: functional
Rattus norvegicus [21] = test: Anti-inflammatory activity in Rattus norvegicus (rat) assessed as inhibition of carrageenan-induced paw edema at 10 mg/kg, po administered at 1 hr prior to carrageenan-challenge measured after 3 hr relative to control; type: functional
Rattus norvegicus [22] = test: Anti-inflammatory activity in Rattus norvegicus (rat) assessed as inhibition of carrageenan-induced paw edema at 12 mg/kg, po administered at 1 hr prior to carrageenan-challenge measured after 1 hr relative to control; type: functional
Rattus norvegicus [23] = test: Anti-inflammatory activity in Rattus norvegicus (rat) assessed as inhibition of carrageenan-induced paw edema at 12 mg/kg, po administered at 1 hr prior to carrageenan-challenge measured after 2 hr relative to control; type: functional
Rattus norvegicus [24] = test: Ulcerogenic activity in fasted albino Rattus norvegicus (rat) at 12 mg/kg, po administered QD for 3 days measured on day 4; type: toxicity, organism-based; set-up: dose 12 mg/kg, route oral; settings: in vivo, 72 h
Rattus norvegicus [25] = test: Anti-inflammatory activity in Rattus norvegicus (rat) assessed as inhibition of carrageenan-induced paw edema at 12 mg/kg, po administered at 1 hr prior to carrageenan-challenge measured after 4 hr relative to control; type: functional
Mus musculus [26] = test: Analgesic activity in Mus musculus (mouse) assessed as inhibition of acetic acid-induced writhing at 12 mg/kg, po measured after 25 min relative to control; type: functional
Rattus norvegicus [27] = test: Anti-inflammatory activity in Rattus norvegicus (rat) assessed as inhibition of carrageenan-induced paw edema at 12 mg/kg, po administered at 1 hr prior to carrageenan-challenge measured after 3 hr relative to control; type: functional
Rattus norvegicus [28] = test: Anti-inflammatory activity in Rattus norvegicus (rat) assessed as inhibition of carrageenan-induced paw edema at 20 mg/kg, po administered at 1 hr prior to carrageenan-challenge measured after 3 hr relative to control; type: functional
Rattus norvegicus [29] = test: Anti-inflammatory activity in Rattus norvegicus (rat) assessed as inhibition of carrageenan-induced paw edema at 20 mg/kg, po administered at 1 hr prior to carrageenan-challenge measured after 4 hr relative to control; type: functional
Mus musculus [30] = test: Analgesic activity in Mus musculus (mouse) assessed as inhibition of acetic acid-induced writhing at 20 mg/kg, po measured after 25 min relative to control; type: functional
Rattus norvegicus [31] = test: Anti-inflammatory activity in Rattus norvegicus (rat) assessed as inhibition of carrageenan-induced paw edema at 20 mg/kg, po administered at 1 hr prior to carrageenan-challenge measured after 1 hr relative to control; type: functional
Rattus norvegicus [32] = test: Anti-inflammatory activity in Rattus norvegicus (rat) assessed as inhibition of carrageenan-induced paw edema at 20 mg/kg, po administered at 1 hr prior to carrageenan-challenge measured after 2 hr relative to control; type: functional

`CC(=O)Nc1ccc(OC(=O)c2ccccc2N(CCO[N+](=O)[O-])c2ccccc2)cc1` showed an inhibition in vivo at 14 mg/kg (Rattus norvegicus [1]) of 26.7%, an inhibition in vivo at 14 mg/kg (Mus musculus [2]) of 15.4% and an inhibition in vivo at 14 mg/kg (Rattus norvegicus [3]) of 55.2%. For the same molecule, the Activity (Rattus norvegicus [4]) was “Non-toxic”, the Activity [5] was 10.71% and the inhibition in vivo at 14 mg/kg (Rattus norvegicus [6]) was 65.8%. The inhibition in vivo at 14 mg/kg (Rattus norvegicus [7]) was 59.6% and the Activity (Rattus norvegicus [8]) was “Non-toxic”.
In the case of `CC(=O)Nc1ccc(OC(=O)c2ccccc2N(CCO[N+](=O)[O-])c2ccc([N+](=O)[O-])cc2)cc1`, the inhibition in vivo at 13 mg/kg (Mus musculus [9]) is reported as 13.8%, the Activity (Rattus norvegicus [10]) is reported as “Non-toxic” and the inhibition in vivo at 13 mg/kg (Rattus norvegicus [11]) is reported as 32.1%. For the same molecule, the inhibition in vivo at 13 mg/kg (Rattus norvegicus [12]) was 23.3%, the Activity (Rattus norvegicus [13]) was “Non-toxic” and the Activity [5] was 6.98%. For the same molecule, the inhibition in vivo at 13 mg/kg (Rattus norvegicus [14]) was 6.67% and the inhibition in vivo at 13 mg/kg (Rattus norvegicus [15]) was 11.9%.
With `CC(=O)Nc1ccc(OC(=O)c2ccccc2N(CCO[N+](=O)[O-])c2ccc(C)cc2)cc1` the inhibition in vivo at 14 mg/kg (Rattus norvegicus [1]) was 30%, the inhibition in vivo at 14 mg/kg (Mus musculus [2]) was 21.8% and the inhibition in vivo at 14 mg/kg (Rattus norvegicus [3]) was 18%. The Activity (Rattus norvegicus [4]) was “Non-toxic”, the Activity [5] was 7.31% and the inhibition in vivo at 14 mg/kg (Rattus norvegicus [6]) was 24.4%. The inhibition in vivo at 14 mg/kg (Rattus norvegicus [7]) was 36.8% and the Activity (Rattus norvegicus [8]) was “Non-toxic”.
For `CC(=O)Nc1ccc(OC(=O)c2ccc(N(CCO[N+](=O)[O-])c3ccccc3C(=O)Oc3ccc(NC(C)=O)cc3)cc2)cc1`, the inhibition in vivo at 10 mg/kg (Mus musculus [16]) was 11.2%, the inhibition in vivo at 10 mg/kg (Rattus norvegicus [17]) was 12.1% and the inhibition in vivo at 10 mg/kg (Rattus norvegicus [18]) was 11.7%. For the same molecule, the Activity (Rattus norvegicus [19]) was “Non-toxic”, the Activity [5] was 2.46% and the inhibition in vivo at 10 mg/kg (Rattus norvegicus [20]) was 18.7%. It also gave an inhibition in vivo at 10 mg/kg (Rattus norvegicus [21]) of 13.7%.
For `CC(=O)Nc1ccc(OC(=O)c2ccccc2N(CCO[N+](=O)[O-])c2ccc(S(N)(=O)=O)cc2)cc1`, the inhibition in vivo at 12 mg/kg (Rattus norvegicus [22]) was 8.33%, the inhibition in vivo at 12 mg/kg (Rattus norvegicus [23]) was 11.5% and the Activity (Rattus norvegicus [24]) was “Non-toxic”. The inhibition in vivo at 12 mg/kg (Rattus norvegicus [25]) was 9.41%, the inhibition in vivo at 12 mg/kg (Mus musculus [26]) was 26.2% and the Activity [5] was 5.88%. It also gave an inhibition in vivo at 12 mg/kg (Rattus norvegicus [27]) of 8.46%.
`O=C(O)Cc1ccccc1Nc1c(Cl)cccc1Cl` [DICLOFENAC SODIUM] gave an inhibition in vivo at 20 mg/kg (Rattus norvegicus [28]) of 73.3%, an inhibition in vivo at 20 mg/kg (Rattus norvegicus [29]) of 73.4% and an inhibition in vivo at 20 mg/kg (Mus musculus [30]) of 8.2%. It also gave an inhibition in vivo at 20 mg/kg (Rattus norvegicus [31]) of 45% and an inhibition in vivo at 20 mg/kg (Rattus norvegicus [32]) of 42.1%.
